Entries after “also recorded” stand apart in the source; their conditions may differ.
Tests used:
[1] = tested on: patients undergoing coronary artery bypass graft (CABG) surgery; assay: Ejection fraction and hemodynamics (Phase 2); assay type: in vivo, human
Description: During surgery, anesthesia was maintained by continuous infusion of fentanyl and midazolam. Routine clinical parameters were recorded using standard operating room monitoring equipment. Continuous 2-lead Holter ECG and TEE data were recorded. Standard surgical procedures (e.g., aorta cross-clamping, crystalloid cardioplegia, cardio-pulmonary bypass, hypothermia) were used. Anastomoses were constructed, aorta cross-clamp removed and patients were discontinued from bypass when body temperature was 37° C. The quality of anastomosis was judged by the surgeon. Difficulty in weaning from bypass was judged by need for one or more of the following: pacemaker, return to bypass, balloon pump or vasopressor administration. Hemodynamic measurements, including heart rate, arterial blood pressure, pulmonary capillary wedge pressure and cardiac output, were recorded before sternotomy, 15 and 30 min after bypass and upon chest closure. Radial artery and pulmonary artery pressures, myocardial and whole body temperature, O2 saturation, end-tidal CO2 and arterial blood gases were measured, and ECG recordings were obtained as clinically indicated. Hemodynamic variables (blood pressure, heart rate, pulmonary capillary wedge pressure) were controlled within 20% of baseline using prescribed regimens.
During the post-operative period through the first post-operative day, morphine and midazolam were used for sedation and analgesia. The cardiovascular medications required were recorded. During this period, continuous ECG monitoring (Holter) was performed for up to 48 hours. Hemodynamic measurements (pulmonary artery pressures and cardiac output) were obtained at 2, 4, 8 and 12 hours (in some cases at 24 and 48 hours) and also whenever clinically indicated.
A twelve-lead ECG was obtained on arrival in the intensive care unit and during post-operative days 1, 2, 3 and at hospital discharge. Creatinine phosphokinase MB band (CK-MB) was obtained every 8 hours for 48 hours and when indicated. Radio-nuclide ventriculography for ejection fraction and wall motion score was done about 14 days post-operation and as close to hospital discharge as possible. Other tests and measurements (e.g., chest x-ray, pulmonary artery wedge pressure (PCWP) were performed when clinically indicated for diagnosis or evaluation of myocardial infarction, or congestive heart failure. Timing and dose of all cardiovascular medications within 48 hours after surgery were recorded. The total dose of all analgesics during the 24-hour post-operative period was recorded. Fluid intake and output (e.g., blood replacement and urine output) were recorded for 48 hours. The type and duration of inotropic support and antiarrhythmic intervention required were recorded through 24 hours after surgery. Two-channel Holter recordings were obtained during 3 periods, the eight hours prior to intubation, from intubation through the end of surgery, and for an additional 24-48 hours after surgery.
9. Election Fraction. Pre-operative and post-operative ejection fractions were measured using different methodologies; therefore, changes could not be analyzed statistically. Group mean injection fractions and pre- and post-CABG are presented and apparent differences between groups were described.
Results for ejection fraction, measured on all patients pre-operatively (by angiography) and at the time of discharge from the intensive care unit (by radionuclide ventriculography) are given in Table 10 below.

[2] = Plasma AICA riboside concentrations / pharmacokinetics in CABG patients (Phase 2); assay type: in vivo, human
Description: 10. Plasma Levels. […] Individual values and group means were tabulated and drug clearance calculated. Dose proportionality was assessed.
The data are also presented graphically in FIG. 3.

[3] = Discoloration of liquid formulation during storage; assay type: physicochemical
[4] = tested on: patients undergoing coronary artery bypass graft (CABG) surgery; assay: Transmural and non-transmural myocardial infarction, CK-MB and CK release, clinical outcomes (Phase 2); assay type: in vivo, human; details: for Number of patients developing transmural myocardial infarction (new Q-wave and CK-MB ≥ 50 I.U.): placebo 5 of 37; for Number of patients with non-transmural myocardial infarction (CK-MB ≥ 50 I.U.): placebo 17
Description: Creatinine phosphokinase MB band (CK-MB) was obtained every 8 hours for 48 hours and when indicated. Radio-nuclide ventriculography for ejection fraction and wall motion score was done about 14 days post-operation and as close to hospital discharge as possible. Other tests and measurements (e.g., chest x-ray, pulmonary artery wedge pressure (PCWP) were performed when clinically indicated for diagnosis or evaluation of myocardial infarction, or congestive heart failure. Timing and dose of all cardiovascular medications within 48 hours after surgery were recorded. The total dose of all analgesics during the 24-hour post-operative period was recorded. Fluid intake and output (e.g., blood replacement and urine output) were recorded for 48 hours. The type and duration of inotropic support and antiarrhythmic intervention required were recorded through 24 hours after surgery. Two-channel Holter recordings were obtained during 3 periods, the eight hours prior to intubation, from intubation through the end of surgery, and for an additional 24-48 hours after surgery. […] For the diagnosis of myocardial infarction, ECG tracings and CK-MB values were assessed centrally by observers blinded to treatment. The difficulty of weaning the patient from bypass, if any, was compared between placebo and treatment groups by noting need for one or more of the following: pacemaker, return to bypass, balloon pump or use of vasopressors. 4. Clinical Outcome. Outcomes of cardiac death, MI, CHF and life-threatening dysrhythmia were compared. Specific endpoints for analysis were combined into a dichotomous endpoint, i.e., at least one of the four events listed above occurs versus none occurs. Fisher's exact test for small samples was used to compare the rates of clinical outcome between the three treatment groups. […] Blood Chemistry--CPK, CK-MB, uric acid, glucose.

[5] = 0.05 mg/kg/min, n=41, ICU + 8 HR
[6] = 0.05 mg/kg/min, n=41, ICU + 16 HR
[7] = 0.05 mg/kg/min, n=41, ICU + 32 HR
[8] = 0.05 mg/kg/min, n=41, ICU + 40 HR
[9] = 0.05 mg/kg/min, n=41, ICU + 48 HR
[10] = 0.05 mg/kg/min, n=41, discharge
[11] = 0.10 mg/kg/min, n=35, ICU + 8 HR
[12] = 0.10 mg/kg/min, n=35, ICU + 16 HR
[13] = 0.10 mg/kg/min, n=35, ICU + 32 HR
[14] = 0.10 mg/kg/min, n=35, ICU + 40 HR
[15] = 0.10 mg/kg/min, n=35, ICU + 48 HR
[16] = 0.10 mg/kg/min, n=35, discharge

NC(=O)c1ncn([C@@H]2O[C@H](CO)[C@@H](O)[C@H]2O)c1N [AICA riboside, 5-amino-1-β-D-ribofuranosyl-imidazole-4-carboxamide]
Ejection fraction ([1]; 0.05 mg/kg/min group, pre-bypass (pre-operative, LV angiography), placebo 57.6 ± 2.0, p=0.54): 55.0 ± 2.3% | Ejection fraction ([1]; 0.05 mg/kg/min, post-bypass (radionuclide ventriculography), placebo 56.5 ± 2.3, p=0.28): 59.0 ± 2.0% | Ejection fraction ([1]; 0.10 mg/kg/min group, pre-bypass (pre-operative, LV angiography), placebo 57.6 ± 2.0, p=0.54): 58.4 ± 2.4% | Ejection fraction ([1]; 0.10 mg/kg/min, post-bypass (radionuclide ventriculography), placebo 56.5 ± 2.3, p=0.28): 61.3 ± 1.7% | Effect on heart rate and blood pressure ([1]; CABG surgery): no effects of treatment with AICA riboside were seen on these parameters | Ejection fraction vs placebo ([1]; post-operative, not statistically significant): higher mean ejection fractions post-bypass than the placebo group; also recorded: trend towards higher ejection fraction in the high dose AICA riboside group | Steady state plasma concentration ([2]; 0.05 mg/kg/min): approximately 2.5 μg/ml | Mean (±SEM) plasma AICA riboside concentration ([2]; 0.05 mg/kg/min constant infusion, n=40, pre-bypass): 2.66 ± 0.30 µg/mL | Mean (±SEM) plasma AICA riboside concentration ([2]; 0.05 mg/kg/min, n=40, 1 hour post-infusion): 0.32 ± 0.63 µg/mL | Mean (±SEM) plasma AICA riboside concentration ([2]; 0.05 mg/kg/min, n=40, end infusion): 1.83 ± 0.13 µg/mL | Mean (±SEM) plasma AICA riboside concentration ([2]; 0.05 mg/kg/min, n=40, post-bypass): 2.49 ± 0.13 µg/mL | Steady state plasma concentration ([2]; 0.1 mg/kg/min): ~5.0 µg/mL | Mean (±SEM) plasma AICA riboside concentration ([2]; 0.10 mg/kg/min constant infusion, n=31, pre-bypass): 5.11 ± 0.20 µg/mL | Mean (±SEM) plasma AICA riboside concentration ([2]; 0.10 mg/kg/min, n=31, 1 hour post-infusion): 0.45 ± 0.03 µg/mL | Mean (±SEM) plasma AICA riboside concentration ([2]; 0.10 mg/kg/min, n=31, end infusion): 3.67 ± 0.30 µg/mL | Mean (±SEM) plasma AICA riboside concentration ([2]; 0.10 mg/kg/min, n=31, post-bypass): 5.47 ± 0.19 µg/mL | Kinetics (linearity, dose proportionality) ([2]; CABG patients, 0.05 and 0.1 mg/kg/min infusion): exhibits linear kinetics; also recorded: good dose proportionality | Plasma concentration as % of steady state level after end of infusion ([2]; one hour after infusion terminated): 10% | Change of CLp during post-bypass period ([2]; post-bypass): trend for the CLp to increase | Dose needed in anesthetized patients, % less than in non-anesthetized patients ([2]; to achieve desired blood concentration levels): 20-50% | Stability of liquid formulation [3]: variable discoloration | CK, mean baseline ([4]; 0.05 mg/kg/min group, n=41): 89.2 +/- 30.9 U/L | CK-MB, mean baseline ([4]; 0.05 mg/kg/min group, n=41): 0.2 +/- 0.1 U/L | CK-MB, mean change from baseline ([4]; 0.05 mg/kg/min, n=41, 24 HR POST): 23.5 +/- 5.0 U/L | CK, mean change from baseline ([4]; 0.05 mg/kg/min, n=41, ICU + 0): 346.2 +/- 45.3 U/L | CK-MB, mean change from baseline ([4]; 0.05 mg/kg/min, n=41, ICU + 0): 24.5 +/- 2.7 U/L | CK, mean change from baseline [4, 5]: 839.2 +/- 89.3 U/L | CK-MB, mean change from baseline [4, 5]: 37.1 +/- 5.1 U/L | CK, mean change from baseline [4, 6]: 1040.6 +/- 120.3 U/L | CK-MB, mean change from baseline [4, 6]: 30.8 +/- 4.9 U/L | CK, mean change from baseline [4, 7]: 874.7 +/- 126.3 U/L | CK-MB, mean change from baseline [4, 7]: 9.2 +/- 2.5 U/L | CK, mean change from baseline [4, 8]: 806.6 +/- 145.6 U/L | CK-MB, mean change from baseline [4, 8]: 7.7 +/- 2.2 U/L | CK, mean change from baseline [4, 9]: 784.0 +/- 149.9 U/L | CK-MB, mean change from baseline [4, 9]: 3.9 +/- 1.5 U/L | CK, mean change from baseline [4, 10]: 87.8 +/- 46.6 U/L | CK-MB, mean change from baseline [4, 10]: 0.0 +/- 0.1 U/L | Number of patients developing transmural myocardial infarction (new Q-wave and CK-MB ≥ 50 I.U.) ([4]; 0.05 mg/kg/min, n=41, p=0.42): 2 patients | Number of patients with non-transmural myocardial infarction (CK-MB ≥ 50 I.U.) ([4]; 0.05 mg/kg/min, n=41, p=0.10): 13 patients | Incidence of transmural myocardial infarction ([4]; 0.05 mg/kg/min, n=41, placebo […], p=0.42): 4.9% | CK, mean baseline ([4]; 0.10 mg/kg/min group, n=35): 66.6 +/- 11.3 U/L | CK-MB, mean baseline ([4]; 0.10 mg/kg/min group, n=35): 0.1 +/- 0.1 U/L | CK-MB, mean change from baseline ([4]; 0.10 mg/kg/min, n=35, 24 HR POST): 21.1 +/- 5.3 U/L | CK, mean change from baseline ([4]; 0.10 mg/kg/min, n=35, ICU + 0): 386.1 +/- 51.8 U/L | CK-MB, mean change from baseline ([4]; 0.10 mg/kg/min, n=35, ICU + 0): 25.2 +/- 2.3 U/L | CK, mean change from baseline [4, 11]: 869.6 +/- 143.7 U/L | CK-MB, mean change from baseline [4, 11]: 34.3 +/- 6.2 U/L | CK, mean change from baseline [4, 12]: 891.0 +/- 148.3 U/L | CK-MB, mean change from baseline [4, 12]: 25.9 +/- 6.7 U/L | CK, mean change from baseline [4, 13]: 894.0 +/- 142.9 U/L | CK-MB, mean change from baseline [4, 13]: 12.8 +/- 4.5 U/L | CK, mean change from baseline [4, 14]: 641.7 +/- 119.7 U/L | CK-MB, mean change from baseline [4, 14]: 7.1 +/- 3.0 U/L | CK, mean change from baseline [4, 15]: 499.8 +/- 100.5 U/L | CK-MB, mean change from baseline [4, 15]: 3.5 +/- 2.1 U/L | CK, mean change from baseline [4, 16]: 31.9 +/- 22.0 U/L | CK-MB, mean change from baseline [4, 16]: 0.4 +/- 0.4 U/L | Number of patients developing transmural myocardial infarction (new Q-wave and CK-MB ≥ 50 I.U.) ([4]; 0.10 mg/kg/min, n=35, p=0.42): 2 patients | Non-transmural MI, combined treatment groups versus placebo ([4]; 0.05 + 0.1 mg/kg/min combined, p=0.046): statistically significant | Number of patients with non-transmural myocardial infarction (CK-MB ≥ 50 I.U.) ([4]; high dose (0.1 mg/kg/min; Table 6 head prints 0.01), n=35, p=0.10): 8 patients | Incidence of non-transmural myocardial infarction (CK-MB ≥ 50 I.U.) ([4]; high dose (0.1 mg/kg/min; Table 6 head prints 0.01), n=35, placebo 47%, p=0.10): 23.5% | Rate of perioperative infarction, all drug-treated patients vs placebo ([4]; including first 5 which received higher doses, p<0.05): statistically significant reduction | Other outcomes (CHF requiring balloon pump or LVAD, cardiac death, life-threatening arrhythmia) ([4]; three groups, exception patient A39 (intra-aortic balloon pump)): none of the other outcomes being evaluated | Total CK levels compared with placebo; same trend for CK-MB release ([4]; treated groups, across all patients): trend toward a reduction in total CK levels in the treated groups compared with placebo | Reduction in the frequency of post-operative myocardial infarctions ([4]; treatment groups vs placebo, p=0.15, not significant): 64%

From US5817640A (Gensia Pharmaceuticals, priority 1995, dated 1998)
